{
  "source": "patent US20220096641A1",
  "about": "“PYRROLOBENZODIAZEPINE DIMER COMPOUND WITH IMPROVED SAFETY AND USE THEREOF” (priority 2019, published 2022)",
  "key": {"[1]": {"test_system": "SK-BR3 human breast cancer cell line (HER2-positive)", "assay": "Bystander effect experiment, SK-BR3 alone", "settings": "for viability at 0.001 µM: Homo sapiens, SK-BR-3, 144 h, read-out: Cell viability (%) SK-BR3; for Cell viability (%) SK-BR3: single concentration of 1 nM, 144 hours, SRB", "protocol": "(§1) The cell proliferation inhibitory activity of the drugs and ADC presented in Table 4 below on cancer cell lines was measured. The SK-BR3 human breast cancer cell line (procured from Korea Cell Line Bank (KCLB)) was used as a HER2-positive cell line, and the MDA-MB-468 human triple-negative breast cancer cell line (procured from ATCC) was used as a HER2-negative cell line. […] All ADCs used in the experiment were anti-HER2 ADCs. In a 96-well plate, 6,000 SK-BR3, 6,000 MDA-MB-468, or 3,000 SK-BR3 and 3,000 MDA-MB-468 per well were seeded together, cultured for 24 hours, and then treated with each drug and ADC at a single concentration of 1 nM. After 144 hours, the number of viable cells was quantified using SRB (Sulforhodamine B) dye."}, "SK-BR3 (HER2 positive)": {"test_system": "SK-BR3 (HER2 positive)", "assay": "In vitro cytotoxicity (cell proliferation inhibition, SRB), SK-BR3", "type": "cell-based", "settings": "Homo sapiens", "protocol": "(§2) The cell proliferation inhibitory activity of the drugs and ADCs presented in Tables 2 and 3 below on cancer cell lines was measured. As the cancer cell lines, commercially available human breast cancer cell lines MCF-7 (HER2 negative to normal), SK-BR3 (HER2 positive), and JIMT-1 (HER2 positive) were used. […] In a 96-well plate, 5,000 SK-BR3, 5,000 MCF-7, and 2,500 JIMT-1 per well were seeded, cultured for 24 hours, and then treated with ADCs at a concentration of 25 fM to 10 nM (5-fold serial dilutions) and drugs at a concentration of 25 fM to 10 nM (5-fold serial dilutions) or 1 fM to 100 nM (10-fold serial dilutions)."}, "[2]": {"test_system": "MCF-7 (HER2 negative to normal)", "assay": "In vitro cytotoxicity (cell proliferation inhibition, SRB), MCF-7", "type": "cell-based", "settings": "Homo sapiens", "protocol": "as §2"}, "JIMT-1 (HER2 positive)": {"test_system": "JIMT-1 (HER2 positive)", "assay": "In vitro cytotoxicity (cell proliferation inhibition, SRB), JIMT-1", "type": "cell-based", "settings": "Homo sapiens", "protocol": "as §2"}, "[3]": {"assay": "Rat pre-tox experiment (single dose toxicity)", "type": "in vivo, SD rats", "settings": "single tail vein dose; for inhibition of weight gain: SG2057 statement for 0.02 mg/kg and 0.04 mg/kg groups", "protocol": "Twenty one 8-week-old male SD rats were divided into 7 groups of 3 rats each, the test material was administered thereto through the tail vein at 2 mL/kg one time, and the weight/death/clinical symptoms and the like thereof were observed. The body weight was measured two times a week, and death and clinical symptoms were observed daily. Four weeks after administration, planned slaughter was performed to examine the gross findings of organs. The results are as illustrated in FIG. 3."}, "[4]": {"test_system": "MDA-MB-468 human triple-negative breast cancer cell line (HER2-negative)", "assay": "Bystander effect experiment, MDA-MB-468 alone", "settings": "for viability at 0.001 µM: Homo sapiens, MDA-MB-468, 144 h, read-out: Cell viability (%) MDA-MB-468; for Cell viability (%) MDA-MB-468: single concentration of 1 nM, 144 hours, SRB", "protocol": "as §1"}, "[5]": {"test_system": "Co-culture SK-BR3:MDA-MB-468 = 1:1", "assay": "Bystander effect experiment, co-culture", "settings": "for viability at 0.001 µM: Homo sapiens, 144 h, read-out: Cell viability (%) Co-culture (SK-BR3:MDA-MB-468 = 1:1); for Cell viability (%) Co-culture (SK-BR3:MDA-MB-468 = 1:1): single concentration of 1 nM, 144 hours, SRB", "protocol": "as §1"}, "[6]": {"test_system": "Co-culture SK-BR3:MDA-MB-468 = 1:1", "settings": "free toxin control materials; cited from earlier work"}, "[7]": {"settings": "first of three dose groups (dose not given)"}, "[8]": {"settings": "second of three dose groups (apparently 0.02 mg/kg)"}, "[9]": {"settings": "third of three dose groups (apparently 0.04 mg/kg)"}, "[10]": {"settings": "SK-BR-3, 144 h, read-out: IC50 (nM) SK-BR3, pyrrolobenzodiazepine derivatives (free drugs), 144 hours, SRB"}, "[11]": {"settings": "MCF7, 144 h, read-out: IC50 (nM) MCF7, pyrrolobenzodiazepine derivatives (free drugs), 144 hours, SRB"}, "[12]": {"settings": "JIMT-1, 144 h, read-out: IC50 (nM) JIMT-1, pyrrolobenzodiazepine derivatives (free drugs), 144 hours, SRB"}},
  "note": "Read-outs that look alike come from different tables or passages of the source. Square brackets hold non-standard residues; d marks the D form. Peptide text beside a SMILES is read from it. * marks the point of attachment. Dolaproine = CO[C@@H]([C@@H]1CCCN1)[C@@H](C)C(=O)O; Dil = CC[C@H](C)[C@H](NC)[C@@H](CC(=O)O)OC; X1 = C[C@@H](N*)[C@@H](O)c1ccccc1; NMeV = CN[C@H](C(=O)O)C(C)C",
  "data": [
    {"smiles": "C=C1CC2CNc3cc(OCc4cc(COc5cc6c(cc5OC)C(=O)N5CC(=C)C[C@H]5CN6)cc(OCCOCCOCCOCC(=O)O)c4)c(OC)cc3C(=O)N2C1", "note": "(some centres unmarked) [Compound 32]", "values": [
      {"measurement": "viability at 0.001 µM", "setting": "[1]", "result": 98, "unit": "%"},
      {"measurement": "IC50", "setting": "SK-BR3 (HER2 positive); SK-BR-3, pyrrolobenzodiazepine derivatives (free drugs), 144 hours, SRB, read-out: IC50 (nM) SK-BR3", "result": 18.2, "unit": "nM"},
      {"measurement": "IC50", "setting": "[2]; MCF7, pyrrolobenzodiazepine derivatives (free drugs), 144 hours, SRB, read-out: IC50 (nM) MCF7", "result": "> 100", "unit": "nM"},
      {"measurement": "IC50", "setting": "JIMT-1 (HER2 positive); JIMT-1, pyrrolobenzodiazepine derivatives (free drugs), 144 hours, SRB, read-out: IC50 (nM) JIMT-1", "result": "> 100", "unit": "nM"},
      {"measurement": "body weight at end of 4th week as compared to body weight at time of administration", "setting": "[3]; [7]", "result": 171, "unit": "%"},
      {"measurement": "body weight at end of 4th week as compared to body weight at time of administration", "setting": "[3]; [8]", "result": 164, "unit": "%"},
      {"measurement": "inhibition of weight gain", "setting": "[3]", "result": "very insignificant"},
      {"measurement": "body weight at end of 4th week as compared to body weight at time of administration", "setting": "[3]; [9]", "result": 161, "unit": "%"},
      {"measurement": "viability at 0.001 µM", "setting": "[4]", "result": 101, "unit": "%"},
      {"measurement": "viability at 0.001 µM", "setting": "[5]", "result": 98, "unit": "%"},
      {"measurement": "bystander effect", "setting": "[5]; conclusion from mono- and co-culture viability at 1 nM", "result": "do not exhibit a bystander effect"}
    ]},
    {"smiles": "C=C1C[C@H]2C=Nc3cc(OCc4cc(COc5cc6c(cc5OC)C(=O)N5CC(=C)C[C@H]5C=N6)cc(OCCOCCOCCOCC(=O)OC)c4)c(OC)cc3C(=O)N2C1", "note": "[Compound 33]", "values": [
      {"measurement": "IC50", "setting": "SK-BR3 (HER2 positive); [10]", "result": "> 100", "unit": "nM"},
      {"measurement": "IC50", "setting": "[2]; [11]", "result": "> 100", "unit": "nM"},
      {"measurement": "IC50", "setting": "JIMT-1 (HER2 positive); [12]", "result": "> 100", "unit": "nM"}
    ]},
    {"smiles": "C=C1C[C@H]2C=Nc3cc(OCc4cc(COc5cc6c(cc5OC)C(=O)N5CC(=C)C[C@H]5C=N6)cc(OCCOCCOCCOCC(=O)NC(CC(=O)O)CC(=O)O)c4)c(OC)cc3C(=O)N2C1", "note": "[Compound 52]", "values": [
      {"measurement": "IC50", "setting": "SK-BR3 (HER2 positive); [10]", "result": "> 100", "unit": "nM"},
      {"measurement": "IC50", "setting": "[2]; [11]", "result": "> 100", "unit": "nM"},
      {"measurement": "IC50", "setting": "JIMT-1 (HER2 positive); [12]", "result": "> 100", "unit": "nM"}
    ]},
    {"smiles": "C=C1C[C@H]2C=Nc3cc(OCc4cc(COc5cc6c(cc5OC)C(=O)N5CC(=C)C[C@H]5C=N6)cc(OCCOCCOCCOCC(=O)NC(CC(=O)OC)CC(=O)OC)c4)c(OC)cc3C(=O)N2C1", "note": "[Compound 53]", "values": [
      {"measurement": "IC50", "setting": "SK-BR3 (HER2 positive); [10]", "result": 2.52, "unit": "nM"},
      {"measurement": "IC50", "setting": "[2]; [11]", "result": 11.8, "unit": "nM"},
      {"measurement": "IC50", "setting": "JIMT-1 (HER2 positive); [12]", "result": 8.93, "unit": "nM"}
    ]},
    {"smiles": "CC[C@H](C)[C@@H]([C@@H](CC(=O)N1CCC[C@H]1[C@H](OC)[C@@H](C)C(=O)N[C@H](C)[C@@H](O)c1ccccc1)OC)N(C)C(=O)[C@@H](NC(=O)[C@@H](NC)C(C)C)C(C)C", "note": "[MMAE] (H-[NMeV]V[Dil][Dolaproine]-X1)", "values": [
      {"measurement": "Cell viability (%) SK-BR3", "setting": "[1]", "result": 12, "unit": "%"},
      {"measurement": "bystander effect (already known)", "setting": "[6]", "result": "known to exhibit a bystander effect"},
      {"measurement": "Cell viability (%) MDA-MB-468", "setting": "[4]", "result": 14, "unit": "%"},
      {"measurement": "Cell viability (%) Co-culture (SK-BR3:MDA-MB-468 = 1:1)", "setting": "[5]", "result": 12, "unit": "%"}
    ]},
    {"smiles": "CC[C@H](C)[C@@H]([C@@H](CC(=O)N1CCC[C@H]1[C@H](OC)[C@@H](C)C(=O)N[C@@H](Cc1ccccc1)C(=O)O)OC)N(C)C(=O)[C@@H](NC(=O)[C@@H](NC)C(C)C)C(C)C", "note": "[MMAF] (H-[NMeV]V[Dil][Dolaproine]F-OH)", "values": [
      {"measurement": "Cell viability (%) SK-BR3", "setting": "[1]", "result": 101, "unit": "%"},
      {"measurement": "bystander effect (already known)", "setting": "[6]", "result": "known to exhibit no bystander effect"},
      {"measurement": "Cell viability (%) MDA-MB-468", "setting": "[4]", "result": 105, "unit": "%"},
      {"measurement": "Cell viability (%) Co-culture (SK-BR3:MDA-MB-468 = 1:1)", "setting": "[5]", "result": 99, "unit": "%"}
    ]},
    {"smiles": "C=C1C[C@H]2C=Nc3cc(OCCCCCOc4cc5c(cc4OC)C(=O)N4CC(=C)C[C@H]4C=N5)c(OC)cc3C(=O)N2C1", "note": "[SG2057]", "values": [
      {"measurement": "viability at 0.001 µM", "setting": "[1]", "result": 7, "unit": "%"},
      {"measurement": "IC50", "setting": "SK-BR3 (HER2 positive); SK-BR-3, 144 h, read-out: IC50 (nM) SK-BR3, comparison of anti-HER2 ADCs, 144 hours, SRB", "result": 0.02, "unit": "nM"},
      {"measurement": "IC50", "setting": "SK-BR3 (HER2 positive); [10]", "result": 0.01, "unit": "nM"},
      {"measurement": "IC50", "setting": "[2]; MCF7, 144 h, read-out: IC50 (nM) MCF7, comparison of anti-HER2 ADCs, 144 hours, SRB", "result": 0.06, "unit": "nM"},
      {"measurement": "IC50", "setting": "[2]; [11]", "result": 0.05, "unit": "nM"},
      {"measurement": "IC50", "setting": "JIMT-1 (HER2 positive); JIMT-1, 144 h, read-out: IC50 (nM) JIMT-1, comparison of anti-HER2 ADCs, 144 hours, SRB", "result": 0.05, "unit": "nM"},
      {"measurement": "IC50", "setting": "JIMT-1 (HER2 positive); [12]", "result": 0.04, "unit": "nM"},
      {"measurement": "body weight at end of 4th week as compared to body weight at time of administration", "setting": "[3]; [7]", "result": 167, "unit": "%"},
      {"measurement": "body weight at end of 4th week as compared to body weight at time of administration", "setting": "[3]; [8]", "result": 148, "unit": "%"},
      {"measurement": "inhibition of weight gain", "setting": "[3]", "result": "significantly inhibited weight gain"},
      {"measurement": "body weight at end of 4th week as compared to body weight at time of administration", "setting": "[3]; [9]", "result": 115, "unit": "%"},
      {"measurement": "viability at 0.001 µM", "setting": "[4]", "result": 4, "unit": "%"},
      {"measurement": "viability at 0.001 µM", "setting": "[5]", "result": 6, "unit": "%"}
    ]}
  ]
}
